In patent publication US10266549B2, “ULK1 inhibitors and methods using same” (SALK INSTITUTE FOR BIOLOGICAL STUDIES, priority 2014, dated 2019):
pIC50: −log10 of the molar value.

Each compound was assayed against ULK1 (Homo sapiens (Human), UniProt O75385) (assay: ULK1 inhibition assay (Table 1)). Details: * = tested as a mixture of regioisomers.
Type: biochemical

Sequence of ULK1 (O75385 whole entry, species assumed): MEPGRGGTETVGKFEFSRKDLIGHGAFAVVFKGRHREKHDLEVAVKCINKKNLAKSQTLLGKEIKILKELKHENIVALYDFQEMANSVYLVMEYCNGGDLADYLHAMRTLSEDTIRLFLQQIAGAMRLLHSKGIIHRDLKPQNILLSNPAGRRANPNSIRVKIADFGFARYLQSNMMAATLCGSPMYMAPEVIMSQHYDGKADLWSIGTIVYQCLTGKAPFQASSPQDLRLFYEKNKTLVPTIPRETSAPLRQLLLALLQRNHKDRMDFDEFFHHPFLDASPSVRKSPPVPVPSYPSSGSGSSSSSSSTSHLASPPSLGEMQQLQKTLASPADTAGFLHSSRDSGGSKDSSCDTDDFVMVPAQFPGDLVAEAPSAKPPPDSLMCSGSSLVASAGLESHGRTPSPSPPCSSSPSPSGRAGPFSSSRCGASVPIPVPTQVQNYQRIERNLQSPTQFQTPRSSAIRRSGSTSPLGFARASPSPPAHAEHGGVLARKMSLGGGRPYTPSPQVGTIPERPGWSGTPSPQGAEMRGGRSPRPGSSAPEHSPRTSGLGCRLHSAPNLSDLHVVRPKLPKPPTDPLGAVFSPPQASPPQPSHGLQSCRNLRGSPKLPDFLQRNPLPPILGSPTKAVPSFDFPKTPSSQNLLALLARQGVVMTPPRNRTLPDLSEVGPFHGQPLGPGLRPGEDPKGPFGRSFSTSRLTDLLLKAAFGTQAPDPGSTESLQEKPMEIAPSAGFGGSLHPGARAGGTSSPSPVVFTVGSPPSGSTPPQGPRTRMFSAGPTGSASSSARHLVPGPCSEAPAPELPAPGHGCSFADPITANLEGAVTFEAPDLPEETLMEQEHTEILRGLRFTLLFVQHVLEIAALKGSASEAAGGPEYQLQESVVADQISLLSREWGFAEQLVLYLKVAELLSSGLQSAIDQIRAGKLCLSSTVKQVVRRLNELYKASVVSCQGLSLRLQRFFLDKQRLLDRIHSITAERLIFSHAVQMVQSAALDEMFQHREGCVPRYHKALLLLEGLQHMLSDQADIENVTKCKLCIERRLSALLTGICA

Compared with `Fc1c(Nc2ncc(C(F)(F)F)c(Nc3ccc4c(c3)OCO4)n2)cccc1C(F)(F)F` [141a, N^4-(benzo[d][1,3]dioxol-5-yl)-N^2-(2-fluoro-3-(trifluoromethyl)phenyl)-5-(trifluoromethyl)pyrimidine-2,4-diamine], `COc1cc(N2CCOCC2)ccc1Nc1ncc(Br)c(Nc2ccccc2S(=O)(=O)N(C)C)n1` [compound 80, 2-(5-Bromo-2-(2-methoxy-4-morpholinophenylamino)pyrimidin-4-ylamino)-N—N-dimethylbenzenesulfonamide] is higher in pIC50: less than 5.70 for the first, greater than 6.70 for the second. The second is the more potent here.

`FC(F)(F)c1cnc(Nc2cnc3[nH]ccc3c2)nc1Nc1ccc2c(c1)OCO2` [compound 177, N4-(benzo[d][1,3]dioxol-5-yl)-N2-(1H-pyrrolo[2,3-b]pyridin-5-yl)-5-(trifluoromethyl)pyrimidine-2,4-diamine] and `FC(F)(F)c1cnc(NC2CC2)nc1Nc1ccc2c(c1)OCCO2` [158b, N^2-cyclopropyl-N^4-(2,3-dihydrobenzo[b][1,4]dioxin-6-yl)-5-(trifluoromethyl)pyrimidine-2,4-diamine] cannot be ordered by pIC50: greater than 6.70 for the first, greater than 6.70 for the second.

First: FC(F)(F)c1cnc(Nc2cccc3ccccc23)nc1Nc1cccc2ccccc12 [126b, N^2,N^4-di(naphthalen-1-yl)-5-(trifluoromethyl) pyrimidine-2,4-diamine]
Second: CNC(=O)c1ccccc1Oc1nc(Nc2cc(OC)c(OC)c(OC)c2)ncc1C(F)(F)F [compound 92, N-Methyl-2-(5-(trifluoromethyl)-2-(3,4,5-trimethoxyphenylamino)pyrimidin-4-yloxy)benzamide]
The pIC50 of the first is lower: 5.70 to 6.70 for the first, greater than 6.70 for the second. The second is the more potent here.

First: O=C1CCc2cc(Nc3ncc(C(F)(F)F)c(NC4CC4)n3)ccc2N1 [131a, 6-((4-(cyclopropylamino)-5-(trifluoromethyl)pyrimidin-2-yl)amino)-3,4-dihydroquinolin-2(1H)-one]
Second: CNC(=O)c1ccccc1Oc1nc(Nc2cc(Br)ccc2C)ncc1Br [compound 112, 2-((5-bromo-2-((5-bromo-2-methylphenyl)amino)pyrimidin-4-yl)oxy)-N-methylbenzamide]
The pIC50 of the first is higher: greater than 6.70 for the first, less than 5.70 for the second.

Compared with “N2-(2-methoxy-5-methylphenyl)-N4-(3-(methylsulfonyl) benzyl)-5-(trifluoromethyl)pyrimidine-2,4-diamine [compound 50]”, `CNC(=O)c1ccccc1Nc1nc(Nc2cccc(OC)c2)ncc1Cl` [compound 44, 2-(5-Chloro-2-(3-methoxyphenylamino)pyrimidin-4-ylamino)-N-methylbenzamide] is higher in pIC50: less than 5.70 for the first, greater than 6.70 for the second.

`COc1cccc(Nc2nc(Nc3ccc4c(c3)CCC(=O)N4)ncc2Br)c1` [compound 142, 6-((5-bromo-4-((3-methoxyphenyl)amino)pyrimidin-2-yl)amino)-3,4-dihydroquinolin-2(1H)-one] and `CNC(=O)c1ccccc1Nc1nc(Nc2ccc3[nH]ccc3c2)ncc1Br` [compound 23, 2-(2-(1H-indol-5-ylamino)-5-bromopyrimidin-4-ylamino)-N-methylbenzamide] cannot be ordered by pIC50: greater than 6.70 for the first, greater than 6.70 for the second.

Compared with `CNC(=O)c1ccccc1Nc1nc(Nc2ccc3[nH]ccc3c2)ncc1Cl` [compound 18, 2-(2-(1H-indol-5-ylamino)-5-chloropyrimidin-4-ylamino)-N-methylbenzamide], `Brc1cnc(Nc2cnc3[nH]ccc3c2)nc1NC1CC1` [compound 174, 5-bromo-N4-cyclopropyl-N2-(1H-pyrrolo[2,3-b]pyridin-5-yl)pyrimidine-2,4-diamine] is higher in pIC50: 5.70 to 6.70 for the first, greater than 6.70 for the second. The second is the more potent here.

First: CNC(=O)c1ccccc1Oc1nc(Nc2ccccc2SC)ncc1C(F)(F)F [116a, N-methyl-2-((2-((2-(methylthio)phenyl)amino)-5-(trifluoromethyl)pyrimidin-4-yl)oxy)benzamide]
Second: Nc1ncc(C(F)(F)F)c(Nc2ccc3c(c2)OCO3)n1 [165a, N^4-(benzo[d][1,3]dioxol-5-yl)-5-(trifluoromethyl)pyrimidine-2,4-diamine]
The pIC50 of the first is lower: less than 5.70 for the first, 5.70 to 6.70 for the second.

`O=C1CCc2cc(Nc3ncc(C(F)(F)F)c(/C=C/c4ccccc4)n3)ccc2N1` [compound 69, (E)-6-(4-Styryl-5-(trifluoromethyl)pyrimidin-2-ylamino)-3,4-dihydroquinolin-2(1H)-one] and `O=C1CCc2cc(Nc3ncc(C(F)(F)F)c(NC4CCC4)n3)ccc2N1` [150a, 6-((4-(cyclobutylamino)-5-(trifluoromethyl)pyrimidin-2-yl)amino)-3,4-dihydroquinolin-2(1H)-one] cannot be ordered by pIC50: greater than 6.70 for the first, greater than 6.70 for the second.

`CC(=O)Nc1ccc(Nc2nc(Nc3ccc4c(c3)CCC(=O)N4)ncc2C(F)(F)F)cc1` [compound 132, N-(4-((2-((2-oxo-1,2,3,4-tetrahydroquinolin-6-yl)amino)-5-(trifluoromethyl)pyrimidin-4-yl)amino)phenyl)acetamide] and `COc1cc(N2CCOCC2)ccc1Nc1ncc(C(F)(F)F)c(Nc2ccc3c(c2)CCC(=O)N3)n1` [123b, 6-((2-((2-methoxy-4-morpholinophenyl)amino)-5-(trifluoromethyl)pyrimidin-4-yl)amino)-3,4-dihydroquinolin-2(1H)-one] cannot be ordered by pIC50: greater than 6.70 for the first, greater than 6.70 for the second.

Compared with `COc1cccc(Nc2nc(Nc3ccc4c(c3)CCC(=O)N4)ncc2Cl)c1` [143a, 6-((5-chloro-4-((3-methoxyphenyl)amino)pyrimidin-2-yl)amino)-3,4-dihydroquinolin-2(1H)-one], `COc1nc(Nc2cccc(C(F)(F)F)c2F)ncc1Br` [compound 172, 5-bromo-N-(2-fluoro-3-(trifluoromethyl)phenyl)-4-methoxy pyrimidin-2-amine] is lower in pIC50: greater than 6.70 for the first, 5.70 to 6.70 for the second. The first is the more potent here.

First: COc1ccc(Nc2nc(Nc3ccc4c(c3)CCC(=O)N4)ncc2Br)cn1 [compound 156, 6-((5-bromo-4-((6-methoxypyridin-3-yl)amino)pyrimidin-2-yl)amino)-3,4-dihydroquinolin-2(1H)-one]
Second: FC(F)(F)c1cnc(Nc2ccc3c(c2)OCO3)nc1NC1Cc2ccccc2C1 [163b, N^2-(benzo [d] [1,3]dioxol-5-yl)-N^4-(2,3-dihydro-1H-inden-2-yl)-5-(trifluoromethyl)pyrimidine-2,4-diamine]
The pIC50 of the first is higher: greater than 6.70 for the first, less than 5.70 for the second.

`FC(F)(F)c1cnc(NCC2CC2)nc1Nc1ccc2c(c1)OCO2` [167a, N^4-(benzo[d][1,3]dioxol-5-yl)-N^2-(cyclopropylmethyl)-5-(trifluoromethyl)pyrimidine-2,4-diamine] and `COc1cccc(Nc2nc(Nc3ccc4c(c3)CCC(=O)N4)ncc2C(F)(F)F)c1` [compound 119, 6-((4-((3-methoxyphenyl)amino)-5-(trifluoromethyl)pyrimidin-2-yl)amino)-3,4-dihydroquinolin-2(1H)-one] cannot be ordered by pIC50: greater than 6.70 for the first, greater than 6.70 for the second.

First: COc1cc(Nc2ncc(Br)c(N(C)C(=O)c3ccccc3O)n2)cc(OC)c1OC [171b, N-(5-bromo-2-((3,4,5-trimethoxyphenyl)amino)pyrimidin-4-yl)-2-hydroxy-N-methylbenzamide]
Second: CNC(=O)c1ccccc1Oc1nc(Nc2cc(OC)ccc2C)ncc1Br [compound 170, 2-((5-bromo-2-((5-methoxy-2-methylphenyl)amino)pyrimidin-4-yl)oxy)-N-methylbenzamide]
The pIC50 of the first is higher: greater than 6.70 for the first, less than 5.70 for the second. The first is the more potent here.

Going from `O=C1CCc2cc(Nc3nc(Nc4ccccc4N4CCOCC4)ncc3C(F)(F)F)ccc2N1` [118b, 6-((2-((2-morpholinophenyl)amino)-5-(trifluoromethyl)pyrimidin-4-yl)amino)-3,4-dihydroquinolin-2(1H)-one] to `O=C1CCc2cc(Nc3ncc(C(F)(F)F)c(NC4Cc5ccccc5C4)n3)ccc2N1` [130a, 6-((4-((2,3-dihydro-1H-inden-2-yl)amino)-5-(trifluoromethyl)pyrimidin-2-yl)amino)-3,4-dihydroquinolin-2(1H)-one], the pIC50 rises from less than 5.70 to greater than 6.70. The second is the more potent here.

First: FC(F)(F)c1cnc(N2CCC2)nc1Nc1ccc2c(c1)OCO2 [166a, 2-(azetidin-1-yl)-N-(benzo[d][1,3]dioxol-5-yl)-5-(trifluoromethyl)pyrimidin-4-amine]
Second: CNC(=O)c1ccccc1Nc1nc(Nc2cc(OC)c(OC)c(OC)c2)ncc1CCc1ccccc1 [compound 87, N-Methyl-2-((5-phenethyl-2-((3,4,5-trimethoxyphenyl)amino)pyrimidin-4-yl)amino)benzamide]
The pIC50 of the first is lower: less than 5.70 for the first, 5.70 to 6.70 for the second. The second is the more potent here.

First: CNC(=O)c1ccccc1Oc1nc(Nc2ccccc2)ncc1C(F)(F)F [compound 99, N-methyl-2-((2-(phenylamino)-5-(trifluoromethyl)pyrimidin-4-yl)oxy)benzamide]
Second: FC(F)(F)c1cnc(Nc2ccc3c(c2)OCO3)nc1N1CCC1 [166b, 4-(azetidin-1-yl)-N-(benzo[d][1,3]dioxol-5-yl)-5-(trifluoromethyl)pyrimidin-2-amine]
The pIC50 of the first is lower: less than 5.70 for the first, greater than 6.70 for the second. The second is the more potent here.

`O=C1CCc2cc(Nc3ncc(C(F)(F)F)c(Nc4cccc(OCc5ccccc5)c4)n3)ccc2N1` [compound 121, 6-((4-((3-(benzyloxy)phenyl)amino)-5-(trifluoromethyl)pyrimidin-2-yl)amino)-3,4-dihydroquinolin-2(1H)-one] and `COc1cc(Nc2ncc(C(F)(F)F)c(Nc3ccccn3)n2)cc(OC)c1OC` [compound 38, N^4-(Pyridin-2-yl)-5-(trifluoromethyl)-N^2-(3,4,5-trimethoxyphenyl)pyrimidine-2,4-diamine] fall in the same range of pIC50: 5.70 to 6.70 for the first, 5.70 to 6.70 for the second.

First: COc1ccc(Nc2nc(Nc3ccc4[nH]ccc4c3)ncc2Cl)cn1 [compound 29, 5-Chloro-N^2-(1H-indol-5-yl)-N^4-(6-methoxypyridin-3-yl) pyrimidine-2,4-diamine]
Second: CNC(=O)c1ccccc1Oc1nc(Nc2cc(C)ccc2C)ncc1C(F)(F)F [compound 104, 2-((2-((2,5-dimethylphenyl)amino)-5-(trifluoromethyl)pyrimidin-4-yl)oxy)-N-methylbenzamide]
The pIC50 of the first is higher: 5.70 to 6.70 for the first, less than 5.70 for the second.

`CNC(=O)c1ccccc1Nc1nc(Nc2cc(OC)ccc2C)ncc1C(F)(F)F` [compound 42, 2-(2-(5-Methoxy-2-methylphenylamino)-5-(trifluoromethyl)pyrimidin-4-ylamino)-N-methylbenzamide] and `O=C1CCc2cc(Nc3ncc(C(F)(F)F)c(Nc4ccccc4OC(F)F)n3)ccc2N1` [120a, 6-((4-((2-(difluoromethoxy)phenyl)amino)-5-(trifluoromethyl)pyrimidin-2-yl)amino)-3,4-dihydroquinolin-2(1H)-one] cannot be ordered by pIC50: greater than 6.70 for the first, greater than 6.70 for the second.

Work on `Oc1ncc(C(F)(F)F)c(Nc2ccccc2N2CCOCC2)n1` [118c, 4-((2-morpholinophenyl)amino)-5-(trifluoromethyl)pyrimidin-2-ol] yielded a pIC50 of less than 5.70.
